41 compounds from the OPERA property sets (Mansouri et al. 2018) can be followed below.

Conditions in the first data set: not given
Broadly, the boiling point is the temperature at which the vapour pressure of the liquid equals the pressure above it. `Fc1cccc(N=C=S)c1`: the boiling point came out at 227 °C.

In the case of `ClC1=C(Cl)C2(Cl)C3C(Cl)C(Cl)C(Cl)C3C1(Cl)C2(Cl)Cl` (configuration not stated), the log10 Koa came out at 9.43 and the log10 vapour pressure (mmHg) was -6.02.

In the case of `CC(C)CNCCO`, the boiling point is 199 °C.

Compound `C[Si](C)(Cl)Cl` had a boiling point of 70.3 °C and a log10 vapour pressure (mmHg) of 2.16.

As to `C#CC(OCC)OCC`, the boiling point amounted to 139 °C.

By melting point is commonly meant the temperature of the solid-liquid transition. `O=C(NNc1ccccc1)c1ccccc1` showed a boiling point of 314 °C and a melting point of 168 °C.

On to `C=C(C)C(=O)OCC(CC)(COC(=O)C(=C)C)COC(=O)C(=C)C`, for which the ready biodegradability result is recorded as “readily biodegradable”.

With `Cc1coc2ccccc12`, the boiling point came out at 197 °C.

In the case of `C[C@H]1C[C@H]2[C@@H]3CCC4=CC(=O)C=C[C@]4(C)[C@@]3(F)[C@@H](O)C[C@]2(C)[C@@]1(O)C(=O)CCl`, the melting point came out at 196 °C.

Take `OCC(F)(F)C(F)(F)C(F)(F)C(F)(F)C(F)(F)C(F)(F)C(F)(F)F`: the boiling point amounted to 161 °C.

Consider `CC[Si](F)(CC)CC`, for which the boiling point was found to be 110 °C and the log10 vapour pressure (mmHg) was determined as 1.57.

For `NCCCCCN`, the boiling point amounted to 179 °C and the melting point was determined as 9 °C.

Take `O=C(O)c1ccccc1-c1ccc(C(F)(F)F)cc1`: the melting point came to 170 °C.

In turn, `CCCCCCCCC(=O)CC` had a boiling point of 227 °C and a melting point of 12 °C.

`O=[N+]([O-])c1ccc(SCl)c([N+](=O)[O-])c1` showed a melting point of 99 °C.

As to `Nc1cc(Cl)cc(Cl)c1`, the boiling point is 261 °C, the log10 Koc (L/kg) was 2.49, the melting point was 52 °C and the ready biodegradability entry was “not readily biodegradable”.

For `CC=CC(=O)OC(=O)C=CC`, the boiling point came to 247 °C.

Regarding `Clc1ccc(Cl)nn1`, the melting point was 67.5 °C.

Turning to `CCC(C)(O)CCl` (configuration not stated), the boiling point was 151 °C.

As for `CCCNc1c([N+](=O)[O-])cc(C(F)(F)F)cc1[N+](=O)[O-]`, the log10 Koc (L/kg) turned out to be 3.61.

`CCC(Br)C(Br)Br` (configuration not stated) had a boiling point of 216 °C.

For the compound `C=COC(C)C`, the boiling point came to 55.5 °C and the melting point is -140 °C.

Compound `CCN(CC)c1ccc(C)cc1` registered a boiling point of 229 °C.

In turn, `Clc1cc2oc3c(Cl)c(Cl)c(Cl)c(Cl)c3c2cc1Cl` returned a log10 Koa of 10.8.

Compound `NC(=O)N1c2ccccc2CC(=O)c2ccccc21` came in with a melting point of 216 °C.

`ClC(Br)Br`: the boiling point turned out to be 120 °C, the log10 Henry constant (atm·m³/mol) was -3.11, the log10 Koa turned out to be 3.59 and the log10 Koc (L/kg) was determined as 1.92. The melting point was -20 °C and the ready biodegradability result was “not readily biodegradable”.

The compound `O=C(O)c1ccc(C(=O)O)c2c(C(=O)O)ccc(C(=O)O)c12` displayed a melting point of 320 °C.

`CC1=C(O)C(=O)C(C)O1` (configuration not stated): the melting point is 80.5 °C.

`COc1ccccc1C` yielded a boiling point of 171 °C and a melting point of -34.1 °C.

On to `CCCCC(Cl)CC` (configuration not stated), for which the boiling point was found to be 144 °C.

Consider `CCNc1nc(NC(C)(C)C)nc(SC)n1`, for which the log10 Koc (L/kg) came out at 2.85, the log10 vapour pressure (mmHg) is -5.77, the melting point came out at 104 °C and the ready biodegradability result was “not readily biodegradable”.

For the compound `CCCC(O)C(CC)CO` (configuration not stated), the boiling point was determined as 244 °C, the log10 vapour pressure (mmHg) is -2.52 and the melting point is -40 °C.

In turn, `CC(=O)O[C@H]1C[C@@H]2CC[C@@H]3[C@H](CC[C@@]4(C)[C@H]3C[C@H]([N+]3(C)CCCCC3)[C@@H]4OC(C)=O)[C@@]2(C)C[C@@H]1[N+]1(C)CCCCC1.[Br-].[Br-]` registered a melting point of 215 °C.

Compound `OCCCCCC(F)(F)F` yielded a boiling point of 166 °C.

Regarding `ClC(Cl)(Br)Br`, the boiling point is 150 °C and the melting point was 38 °C.

`Cc1cccnc1C` registered a boiling point of 161 °C, a log10 Henry constant (atm·m³/mol) of -5.14 and a log10 vapour pressure (mmHg) of 0.43.

For `CCCCOC(=O)CC#N`, the boiling point was found to be 231 °C.

Usually logP stands for a log measure of how a compound divides between an organic and an aqueous phase. `Brc1ccc(Oc2ccc(Br)cc2Br)cc1` showed a log10 Koa of 9.5, a log10 vapour pressure (mmHg) of -6.17 and a logP of 5.94.

`Cc1csc(C)c1C` showed a boiling point of 162 °C and a melting point of -26.2 °C.

On to `CCCCCCC1CCCC1`, for which the boiling point was 203 °C and the melting point was -73 °C.

Compound `COC(=O)NN` registered a melting point of 73 °C.

Still in this data set, the particulars now being: fish.
Compound `Clc1cc2oc3c(Cl)c(Cl)c(Cl)c(Cl)c3c2cc1Cl` registered a log10 BCF of 3.9.

`Brc1ccc(Oc2ccc(Br)cc2Br)cc1` showed a log10 BCF of 5.83 and a log10 biotransformation half-life (days) of 1.25.
